Read-outs that look alike come from different tables or passages of the source.

Data set [1] in a line: Stability: test compounds heated at 100° C. for 8 hours. The note with it: for stability (in words): compared with the conventionally-known halides; for Changes in appearance / Percent remainder (%): heated at 100° C. for 8 hours; for Percent remainder (%): 480 min. In kind it is physicochemical. On the procedure: Test compounds were heated at 100° C. for 8 hours. Changes in their appearance and their percent remainders were studied.

Another data set in a line: Solubility in water. In kind it is physicochemical.
For the next data set, the system named is cholera toxin. In kind it is in vivo, SPF male Wister rats. The settings on record: secreta measured after 5 hours, rats.
Data set [2] concerns adenylate cyclase. Briefly: Inhibition of adenylate cyclase activity of intestinal epithetial cells. The settings on record: 200 nM, mice. In kind it is biochemical. On the procedure:
(§1) At 200 nM concentration, 13-propylberberin bisulfate inhibits about 50% of adenylate cyclase activity of intestinal epithetial cells or splenic lymphocytes in mice.

Data set [3] concerns adenylate cyclase. Description: Inhibition of adenylate cyclase activity of splenic lymphocytes. In kind it is biochemical. The note with it: 200 nM, mice. On the procedure: as §1

On to `CCCc1c2[n+](cc3c(OC)c(OC)ccc13)CCc1cc3c(cc1-2)OCO3` [13-Propylberberine primary phosphate, 13-propylberberine primary phosphate], for which, in data set [1], the “stability (in words)” value is listed as “extremely stable”, the Changes in appearance result is on record as “no changes” and the “Percent remainder (%)” value came out at 99.8%. In addition, in “Solubility in water”, the Solubility entry was “soluble”. Besides, the Solubility entry in “Solubility in water” (listed as 13-propylberberine phosphate) is “readily soluble in water”.

`CCCc1c2[n+](cc3c(OC)c(OC)ccc13)CCc1cc3c(cc1-2)OCO3` [13-Propylberberine bisulfate, 13-propylberberine bisulfate]: the “Inhibition rate (%)” value in the data set with cholera toxin (0.5 mg/kg injected into ligated tract with 20 μg cholera toxin) turned out to be 13.0%; in the data set with cholera toxin (2 mg/kg injected into ligated tract with 20 μg cholera toxin), 40.0%. The “stability (in words)” value in data set [1] was “extremely stable”. The Changes in appearance result in data set [1] is “no changes”. For the same molecule, in data set [1], the “Percent remainder (%)” value is on record as 100.0%. Also, the Solubility result in “Solubility in water” is listed as “soluble”; in “Solubility in water” (listed as 13-propylberberine sulfate), “readily soluble in water”. Further, the “inhibition of adenylate cyclase activity” value with adenylate cyclase [2] and with adenylate cyclase [3] was “about 50%” in each case.

For the molecule `CCCc1c2[n+](cc3c(OC)c(OC)ccc13)CCc1cc3c(cc1-2)OCO3` [13-Propylberberine iodide, reference compound], the “Percent remainder (%)” value in data set [1] is reported as 52.1%.

Regarding `CCCc1c2[n+](cc3c(OC)c(OC)ccc13)CCc1cc3c(cc1-2)OCO3` [13-Propylberberine chloride, reference compound], the “Percent remainder (%)” value in data set [1] is listed as 48.7%.

On to `COc1ccc2cc3[n+](cc2c1OC)CCc1cc2c(cc1-3)OCO2` [Berberine chloride, reference compound], for which the “Inhibition rate (%)” value in the data set on cholera toxin (20 mg/kg injected into ligated tract with 20 μg cholera toxin) is 8.0%.

With `CCCc1c2[n+](cc3c(OC)c(OC)ccc13)CCc1cc3c(cc1-2)OCO3` [13-Propylberberine bromide, 13-propylberberine bromide, reference compound], the “Percent remainder (%)” value in data set [1] was found to be 57.0%.

The values above are taken from patent publication US4761477A (priority 1984, dated 1988).
